{"source": "patent US7858635B2", "about": "(priority 2005, dated 2010)", "key": {"M1 muscarinic receptor": {"target": "T1, M1 muscarinic receptor (Homo sapiens, UniProt P11229)", "T1 construct": "expressed in transfected cells; host or cells: CHO cells (M1-CHO, under zeocin and G418 selection)", "T1 sequence (P11229 1-460)": "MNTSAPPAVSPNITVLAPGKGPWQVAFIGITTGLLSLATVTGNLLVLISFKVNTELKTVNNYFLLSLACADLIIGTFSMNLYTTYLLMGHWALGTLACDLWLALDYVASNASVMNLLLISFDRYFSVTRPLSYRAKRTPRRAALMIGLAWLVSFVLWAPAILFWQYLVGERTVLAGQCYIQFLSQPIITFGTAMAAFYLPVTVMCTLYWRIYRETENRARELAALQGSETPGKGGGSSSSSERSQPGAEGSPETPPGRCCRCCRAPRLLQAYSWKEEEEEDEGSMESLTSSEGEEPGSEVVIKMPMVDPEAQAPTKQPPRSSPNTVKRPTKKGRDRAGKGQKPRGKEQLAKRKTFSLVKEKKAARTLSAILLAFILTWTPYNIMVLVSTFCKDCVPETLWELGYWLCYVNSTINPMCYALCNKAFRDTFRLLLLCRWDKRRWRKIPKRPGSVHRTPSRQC", "test": "Functional mobilization of intracellular calcium (FLIPR, Fluo-3), M1-CHO cells", "type": "cell-based", "settings": "for Emax: compound nos. 455-509, 100% efficacy is the maximum response obtained with the Carbachol control, read-out: M1 Efficacy; for M1 Activity: compounds 455-509", "method_in_brief": "(§1)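 Intracellular calcium was tracked by fluorescence (488/540 nm) over 60 sec after compound addition to dye-loaded CHO cells expressing the receptor. Inhibitory activity used a 15 min pre-incubation before carbachol at the subtype EC80.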"}, "M4 muscarinic receptor": {"target": "T2, M4 muscarinic receptor (Homo sapiens, UniProt P08173)", "T2 construct": "expressed in transfected cells; host or cells: CHO cells (M4-CHO, under puromycin, zeocin and blasticidin selection)", "T2 sequence (P08173 1-479)": "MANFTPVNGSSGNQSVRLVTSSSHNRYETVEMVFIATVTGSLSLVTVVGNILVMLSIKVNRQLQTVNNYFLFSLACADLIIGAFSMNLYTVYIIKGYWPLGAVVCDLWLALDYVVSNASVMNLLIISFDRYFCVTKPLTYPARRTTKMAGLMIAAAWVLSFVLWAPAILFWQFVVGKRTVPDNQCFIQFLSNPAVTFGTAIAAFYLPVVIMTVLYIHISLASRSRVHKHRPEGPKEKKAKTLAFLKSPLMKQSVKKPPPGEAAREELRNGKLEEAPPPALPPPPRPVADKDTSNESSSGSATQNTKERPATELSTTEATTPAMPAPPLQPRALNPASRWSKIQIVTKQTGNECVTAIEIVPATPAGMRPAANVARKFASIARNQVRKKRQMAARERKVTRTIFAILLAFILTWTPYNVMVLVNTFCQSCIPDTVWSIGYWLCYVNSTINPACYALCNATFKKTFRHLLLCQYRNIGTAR", "test": "Functional mobilization of intracellular calcium (FLIPR, Fluo-3), M4-CHO cells", "type": "cell-based", "settings": "for Emax: compound nos. 455-509, 100% efficacy is the maximum response obtained with the Carbachol control, read-out: M4 Efficacy; for M4 Activity: compounds 455-509", "method_in_brief": "as §1"}}, "data": [{"smiles": "CCc1nsc(N2CCC(N3CCC4(CCN(C(C)=O)c5ccccc54)CC3)CC2)n1", "note": "[compound 489]", "values": [{"measurement": "Emax", "setting": "M1 muscarinic receptor", "value": "> 100", "unit": "%"}, {"measurement": "M1 Activity", "setting": "M1 muscarinic receptor", "value": "+++ (activity was measured to be less than or equal to 2.0 μM)"}, {"measurement": "Emax", "setting": "M4 muscarinic receptor", "value": "25 to 100", "unit": "%"}, {"measurement": "M4 Activity", "setting": "M4 muscarinic receptor", "value": "++ (activity was measured to be between 2.0 μM and 5.0 μM)"}]}, {"smiles": "COC(=O)N1C2CCC1CC(N1CCC3(CC1)CN(C1CCN(c4nc(C)ns4)CC1)c1ccccc13)C2", "note": "(stereo not shown) [compound 490]", "values": [{"measurement": "Emax", "setting": "M1 muscarinic receptor", "value": "> 100", "unit": "%"}, {"measurement": "M1 Activity", "setting": "M1 muscarinic receptor", "value": "++ (activity was measured to be between 2.0 μM and 5.0 μM)"}, {"measurement": "Emax", "setting": "M4 muscarinic receptor", "value": "25 to 100", "unit": "%"}, {"measurement": "M4 Activity", "setting": "M4 muscarinic receptor", "value": "++ (activity was measured to be between 2.0 μM and 5.0 μM)"}]}, {"smiles": "CC(=O)N1CC2(CCN(C3CCN(c4nccs4)CC3)CC2)c2ccccc21", "note": "[compound 491]", "values": [{"measurement": "Emax", "setting": "M1 muscarinic receptor", "value": "< 25", "unit": "%"}, {"measurement": "M1 Activity", "setting": "M1 muscarinic receptor", "value": "+ (activity was measured to be greater than or equal to 5.0 μM)"}, {"measurement": "Emax", "setting": "M4 muscarinic receptor", "value": "< 25", "unit": "%"}, {"measurement": "M4 Activity", "setting": "M4 muscarinic receptor", "value": "++ (activity was measured to be between 2.0 μM and 5.0 μM)"}]}, {"smiles": "CC(=O)N1CCC2(CCN(C3CCN(c4nc(C)ns4)CC3)CC2)c2ccccc21", "note": "[compound 492]", "values": [{"measurement": "Emax", "setting": "M1 muscarinic receptor", "value": "> 100", "unit": "%"}, {"measurement": "M1 Activity", "setting": "M1 muscarinic receptor", "value": "+++ (activity was measured to be less than or equal to 2.0 μM)"}, {"measurement": "Emax", "setting": "M4 muscarinic receptor", "value": "25 to 100", "unit": "%"}, {"measurement": "M4 Activity", "setting": "M4 muscarinic receptor", "value": "++ (activity was measured to be between 2.0 μM and 5.0 μM)"}]}, {"smiles": "Cc1nsc(N2C3CCC2CC(N2CCC4(CC2)CN(C(=O)N(C)C)c2ccccc24)C3)n1", "note": "(stereo not shown) [compound 493]", "values": [{"measurement": "Emax", "setting": "M1 muscarinic receptor", "value": "> 100", "unit": "%"}, {"measurement": "M1 Activity", "setting": "M1 muscarinic receptor", "value": "+++ (activity was measured to be less than or equal to 2.0 μM)"}, {"measurement": "Emax", "setting": "M4 muscarinic receptor", "value": "25 to 100", "unit": "%"}, {"measurement": "M4 Activity", "setting": "M4 muscarinic receptor", "value": "++ (activity was measured to be between 2.0 μM and 5.0 μM)"}]}, {"smiles": "Cc1cncc(N2CCC(N3CCC4(CCN(C(=O)N(C)C)c5ccccc54)CC3)CC2)n1", "note": "[compound 494]", "values": [{"measurement": "Emax", "setting": "M1 muscarinic receptor", "value": "> 100", "unit": "%"}, {"measurement": "M1 Activity", "setting": "M1 muscarinic receptor", "value": "+++ (activity was measured to be less than or equal to 2.0 μM)"}, {"measurement": "Emax", "setting": "M4 muscarinic receptor", "value": "25 to 100", "unit": "%"}, {"measurement": "M4 Activity", "setting": "M4 muscarinic receptor", "value": "++ (activity was measured to be between 2.0 μM and 5.0 μM)"}]}, {"smiles": "CN(C)C(=O)N1CC2(CCN(C3CCN(c4nncs4)CC3)CC2)c2ccccc21", "note": "[compound 495]", "values": [{"measurement": "Emax", "setting": "M1 muscarinic receptor", "value": "25 to 100", "unit": "%"}, {"measurement": "M1 Activity", "setting": "M1 muscarinic receptor", "value": "+ (activity was measured to be greater than or equal to 5.0 μM)"}, {"measurement": "Emax", "setting": "M4 muscarinic receptor", "value": "25 to 100", "unit": "%"}, {"measurement": "M4 Activity", "setting": "M4 muscarinic receptor", "value": "+ (activity was measured to be greater than or equal to 5.0 μM)"}]}, {"smiles": "CN(C)C(=O)N1CC2(CCN(C3CCN(c4ncnc5ccsc45)CC3)CC2)c2cc(F)ccc21", "note": "[compound 496]", "values": [{"measurement": "Emax", "setting": "M1 muscarinic receptor", "value": "> 100", "unit": "%"}, {"measurement": "M1 Activity", "setting": "M1 muscarinic receptor", "value": "+ (activity was measured to be greater than or equal to 5.0 μM)"}, {"measurement": "Emax", "setting": "M4 muscarinic receptor", "value": "25 to 100", "unit": "%"}, {"measurement": "M4 Activity", "setting": "M4 muscarinic receptor", "value": "++ (activity was measured to be between 2.0 μM and 5.0 μM)"}]}, {"smiles": "CN(C)C(=O)N1CC2(CCN(C3CCN(c4cnc5ccccc5n4)CC3)CC2)c2ccccc21", "note": "[compound 497]", "values": [{"measurement": "Emax", "setting": "M1 muscarinic receptor", "value": "> 100", "unit": "%"}, {"measurement": "M1 Activity", "setting": "M1 muscarinic receptor", "value": "+++ (activity was measured to be less than or equal to 2.0 μM)"}, {"measurement": "Emax", "setting": "M4 muscarinic receptor", "value": "25 to 100", "unit": "%"}, {"measurement": "M4 Activity", "setting": "M4 muscarinic receptor", "value": "++ (activity was measured to be between 2.0 μM and 5.0 μM)"}]}, {"smiles": "CCc1nsc(N2CCC(N3CCC4(CC3)CN(C(C)=O)c3ccccc34)CC2)n1", "note": "[compound 498]", "values": [{"measurement": "Emax", "setting": "M1 muscarinic receptor", "value": "> 100", "unit": "%"}, {"measurement": "M1 Activity", "setting": "M1 muscarinic receptor", "value": "+++ (activity was measured to be less than or equal to 2.0 μM)"}, {"measurement": "Emax", "setting": "M4 muscarinic receptor", "value": "25 to 100", "unit": "%"}, {"measurement": "M4 Activity", "setting": "M4 muscarinic receptor", "value": "++ (activity was measured to be between 2.0 μM and 5.0 μM)"}]}, {"smiles": "Cc1csc(N2CCC(N3CCC4(CC3)CN(C(=O)N(C)C)c3ccccc34)CC2)n1", "note": "[compound 499]", "values": [{"measurement": "Emax", "setting": "M1 muscarinic receptor", "value": "> 100", "unit": "%"}, {"measurement": "M1 Activity", "setting": "M1 muscarinic receptor", "value": "+ (activity was measured to be greater than or equal to 5.0 μM)"}, {"measurement": "Emax", "setting": "M4 muscarinic receptor", "value": "25 to 100", "unit": "%"}, {"measurement": "M4 Activity", "setting": "M4 muscarinic receptor", "value": "++ (activity was measured to be between 2.0 μM and 5.0 μM)"}]}, {"smiles": "CN(C)C(=O)N1CC2(CCN(C3CC4CCC(C3)N4c3cnccn3)CC2)c2ccccc21", "note": "(stereo not shown) [compound 500]", "values": [{"measurement": "Emax", "setting": "M1 muscarinic receptor", "value": "> 100", "unit": "%"}, {"measurement": "M1 Activity", "setting": "M1 muscarinic receptor", "value": "+++ (activity was measured to be less than or equal to 2.0 μM)"}, {"measurement": "Emax", "setting": "M4 muscarinic receptor", "value": "25 to 100", "unit": "%"}, {"measurement": "M4 Activity", "setting": "M4 muscarinic receptor", "value": "++ (activity was measured to be between 2.0 μM and 5.0 μM)"}]}, {"smiles": "Cc1nsc(N2C3CCC2CC(N2CCC4(CCN(C(=O)N(C)C)c5ccccc54)CC2)C3)n1", "note": "(stereo not shown) [compound 501]", "values": [{"measurement": "Emax", "setting": "M1 muscarinic receptor", "value": "> 100", "unit": "%"}, {"measurement": "M1 Activity", "setting": "M1 muscarinic receptor", "value": "+++ (activity was measured to be less than or equal to 2.0 μM)"}, {"measurement": "Emax", "setting": "M4 muscarinic receptor", "value": "25 to 100", "unit": "%"}, {"measurement": "M4 Activity", "setting": "M4 muscarinic receptor", "value": "++ (activity was measured to be between 2.0 μM and 5.0 μM)"}]}]}
